Measurements as given in US20160113921A1, “COMBINATION THERAPY COMPRISING OXAZOLIDINONE-QUINOLONES FOR USE IN TREATING BACTERIAL INFECTIONS” (MORPHOCHEM AKTIENGESELLSCHAFT FÜR KOMBINATORISCHE CHEMIE, priority 2013, published 2016).
Values after ≈ are worked out from the molar mass of the structure shown. Like-named read-outs stand apart in the source and are kept apart here.

Assays:
Assay type in all cases: cell-based
[1] = tested on: six selected indicator strains; assay: Checkerboard titration, statements on the six indicator strains; conditions: read-out: MIC of Compound 1 alone, checkerboard; strains as worded in the text
From the text: (§1) The checkerboard consists of columns in which each well contains the same amount of antibacterial A being over i dilutions along the x-axis, and in rows in which each well contains the same amount of antibacterial B over j dilutions on the y-axis, i.e. serial dilutions of antibacterials A and B, respectively, are titrated in a rectangular fashion.
(§2) The fractional inhibitory concentration (FIC) is a mathematical expression of the effect of the combination of two antibacterial agents A and B. The FICs were calculated as the MIC of antibacterial A and antibacterial B in combination divided by the MIC of antibacterial A or antibacterial B alone.
(§3) The checkerboard titrations were performed three times.

[2] = tested on: E. coli NRZ-00401 (metallo β-lactamase VIM-1); assay: MIC, broth microdilution (CLSI), CAMHB; conditions: monosubstance, Ec NRZ00401
Procedure: (§4) MIC-testing was done immediately after preparation of the dilutions. All tests were done in duplicate and repeated once on a separate occasion.
(§5) 1 mL of the bacterial suspension was transferred into a tube containing 10 mL CAMHB and was vortexed thoroughly. (S. pneumoniae 1 mL in 10 mL CAMHB+5% lysed horse blood). Columns 1-15 of the 96-well plate were inoculated with 5 μL of this suspension (1-15=antibacterial solution, 16=sterile medium without test item).
(§6) Turbidity was read visually with a mirror.

[3] = tested on: S. aureus Visa Mu 50 (MRSA, vancomycin intermediate susceptible); assay: MIC, broth microdilution (CLSI), CAMHB; conditions: Staphylococcus aureus; monosubstance; Sa VisaMu50; read-out: MIC
Procedure: as §4, §5, §6

E. faecium DSMZ 2146 = assay: MIC, broth microdilution (CLSI), CAMHB; conditions: Enterococcus faecium; monosubstance; Efc DSMZ2146; read-out: MIC
Procedure: as §4, §5, §6

[4] = tested on: S. aureus NRS-119 (MRSA, linezolid- and quinolone-resistant); assay: MIC, broth microdilution (CLSI), CAMHB; conditions: Staphylococcus aureus; monosubstance; Sa NRS119; read-out: MIC
Procedure: as §4, §5, §6

K. pneumoniae ATCC 13883 = assay: MIC, broth microdilution (CLSI), CAMHB; conditions: monosubstance, Kp ATCC13883
Procedure: as §4, §5, §6

E. cloacae ATCC 13047 [5] = assay: MIC, broth microdilution (CLSI), CAMHB; conditions: monosubstance, Ecl ATCC13047
Procedure: as §4, §5, §6

[6] = tested on: E. faecium UW 3695 (linezolid and quinolone-resistant); assay: MIC, broth microdilution (CLSI), CAMHB; conditions: Enterococcus faecium; monosubstance; Efc UW3695; read-out: MIC
Procedure: as §4, §5, §6

E. coli ATCC 25922 [7] = assay: Checkerboard titration of Compound 1 and colistin
From the text: as §1, §2
(§7) The FICs and FIC index, respectively, are calculated according to the following equations:
(§8) FIC(A)=MIC(A in the presence of B)/MIC(A alone)
(§9) FIC(B)=MIC(B in the presence of A)/MIC(B alone)
as §3

E. cloacae ATCC 13047 [8] = assay: Checkerboard titration of Compound 1 and colistin
From the text: as §1, §2, §7, §8, §9, §3

[9] = tested on: Gram-positive strains tested; assay: MIC testing, statements on the Gram-positive strain panel; conditions: all Gram-positive strains tested; read-out: MIC (inhibitory concentration)
From the text: as §4

E. coli GNS-2601 = assay: Time-kill curves; conditions: E. coli GNS2601; for growth- and kill rates k ('+' = growth, unmarked = kill rate): first four hours
P. mirabilis ATCC 9240 = assay: MIC, broth microdilution (CLSI), CAMHB; conditions: monosubstance; Pm ATCC9240
Procedure: as §4, §5, §6

[10] = tested on: K. pneumoniae NRZ-00103 (KPC-2); assay: MIC, broth microdilution (CLSI), CAMHB; conditions: monosubstance; Kp NRZ00103
Procedure: as §4, §5, §6

[11] = tested on: E. cloacae NRZ-00239 (VIM-1); assay: MIC, broth microdilution (CLSI), CAMHB; conditions: monosubstance; Ecl NRZ00239
Procedure: as §4, §5, §6

P. aeruginosa ATCC 10145 = assay: MIC, broth microdilution (CLSI), CAMHB; conditions: monosubstance; Pa ATCC10145
Procedure: as §4, §5, §6

[12] = tested on: K. pneumoniae NRZ-00002 (OXA-48); assay: MIC, broth microdilution (CLSI), CAMHB; conditions: monosubstance; Kp NRZ00002
Procedure: as §4, §5, §6

[13] = tested on: K. pneumoniae NRZ-00535 (VIM-1); assay: MIC, broth microdilution (CLSI), CAMHB; conditions: monosubstance; Kp NRZ00535
Procedure: as §4, §5, §6

[14] = tested on: P. mirabilis NRZ-00185 (AmpC, type CMY-2); assay: MIC, broth microdilution (CLSI), CAMHB; conditions: monosubstance; Pm NRZ00185
Procedure: as §4, §5, §6

[15] = tested on: P. aeruginosa NRZ-00425 (VIM-1); assay: MIC, broth microdilution (CLSI), CAMHB; conditions: monosubstance; Pa NRZ00425
Procedure: as §4, §5, §6

[16] = tested on: E. coli NRZ-00302 (metallo β-lactamase NDM-1); assay: MIC, broth microdilution (CLSI), CAMHB; conditions: monosubstance; Ec NRZ00302
Procedure: as §4, §5, §6

E. coli ATCC 25922 [17] = assay: MIC, broth microdilution (CLSI), CAMHB; conditions: monosubstance; Ec ATCC25922
Procedure: as §4, §5, §6

[18] = tested on: E. coli GNS-2601 (ESBL CTX-M-15); assay: MIC, broth microdilution (CLSI), CAMHB; conditions: monosubstance; Ec GNS2601
Procedure: as §4, §5, §6

E. coli NRZ-00302 = assay: Time-kill curves; conditions: E. coli NRZ00302; for growth- and kill rates k ('+' = growth, unmarked = kill rate): first four hours
E. coli ATCC 25922 [19] = assay: Time-kill curves; conditions: E. coli ATCC25922; for growth- and kill rates k ('+' = growth, unmarked = kill rate): first four hours
E. coli NRZ-00401 = assay: Time-kill curves; conditions: E. coli NRZ00401; for growth- and kill rates k ('+' = growth, unmarked = kill rate): first four hours
[20] = tested on: E. cloacae NRZ-00239 (VIM-1 β-lactamase); assay: Checkerboard titration of Compound 1 and colistin
From the text: as §1, §2, §7, §8, §9, §3

[21] = tested on: E. coli ATCC 25922, NRZ-00401, NRZ-00302 and GNS-2601; assay: Time-kill curves, statements on the four E. coli strains; conditions: one- or two-times MIC; four E. coli strains
[22] = tested on: K. pneumoniae NRZ-00535 (VIM-1 β-lactamase); conditions: checkerboard
From the text: as §1, §2, §7, §8, §9, §3

[23] = tested on: E. coli NRZ-00302 (NDM-1 β-lactamase); conditions: checkerboard
From the text: as §1, §2, §7, §8, §9, §3

[24] = tested on: P. aeruginosa NRZ-00425 (VIM-2 β-lactamase); assay: microbe, parasite or virus in culture; conditions: checkerboard
From the text: as §1, §2, §7, §8, §9, §3

## CC(=O)NC[C@H]1CN(c2ccc(OCC3(O)CCN(c4cc5c(cc4F)c(=O)c(C(=O)O)cn5C4CC4)CC3)c(F)c2)C(=O)O1 [Compound 1, 7-(4-{4-[(5S)-5-(acetylamino-methyl)-2-oxo-oxazolidin-3-yl]-2-fluoro-phenoxymethyl}-4-hydroxy-piperidin-1-yl)-1-cyclopropyl-6-fluoro-4-oxo-1,4-dihydro-quinoline-3-carboxylic]
[1]
  MIC: > 256 µg/mL
[2]; Escherichia coli, read-out: MIC
  MIC: 16 µg/mL (≈ 25.5 µM)
[3]
  MIC: 0.06 µg/mL (≈ 0.0958 µM)
E. faecium DSMZ 2146
  MIC: 0.06 µg/mL (≈ 0.0958 µM)
[4]
  MIC: 1 µg/mL (≈ 1.6 µM)
K. pneumoniae ATCC 13883; Klebsiella pneumoniae, read-out: MIC
  MIC: 128 µg/mL (≈ 204 µM)
E. cloacae ATCC 13047 [5]; Enterobacter cloacae, read-out: MIC
  MIC: 128 µg/mL (≈ 204 µM)
[6]
  MIC: 0.06 µg/mL (≈ 0.0958 µM)
E. coli ATCC 25922 [7]; Escherichia coli, ATCC25922, read-out: MIC (agent alone)
  MIC: 8 to 16 µg/mL
E. cloacae ATCC 13047 [8]; Enterobacter cloacae, ATCC13047, checkerboard, read-out: MIC (agent alone)
  MIC: > 256 µg/mL
[9]
  MIC: < 0.25 µg/mL

## colistin
E. coli GNS-2601; single agent at 1x its MIC
  growth- and kill rates k ('+' = growth, unmarked = kill rate): 1.55 h⁻¹
  Viable counts at 8 h of exposure: 0 log10 CFU/mL
E. coli GNS-2601; single agent at 2x its MIC
  growth- and kill rates k ('+' = growth, unmarked = kill rate): 1.80 h⁻¹
  Viable counts at 8 h of exposure: 0 log10 CFU/mL
[2]
  MIC: 1 µg/mL
P. mirabilis ATCC 9240
  MIC: >256 µg/mL
[10]
  MIC: 0.25 µg/mL
K. pneumoniae ATCC 13883
  MIC: 0.03 µg/mL
[11]
  MIC: 0.5 µg/mL
P. aeruginosa ATCC 10145
  MIC: 0.5 µg/mL
[12]
  MIC: 0.25 µg/mL
[13]
  MIC: 0.25 µg/mL
[14]
  MIC: >256 µg/mL
[15]
  MIC: 1 µg/mL
[16]
  MIC: 1 µg/mL
E. coli ATCC 25922 [17]
  MIC: 1 µg/mL
E. cloacae ATCC 13047 [5]
  MIC: 64 µg/mL
[18]
  MIC: 2 µg/mL
E. coli NRZ-00302; single agent at 1x its MIC
  growth- and kill rates k ('+' = growth, unmarked = kill rate): 1.63 h⁻¹
  Viable counts at 8 h of exposure: 1.95 log10 CFU/mL
E. coli NRZ-00302; single agent at 2x its MIC
  growth- and kill rates k ('+' = growth, unmarked = kill rate): 1.89 h⁻¹
  Viable counts at 8 h of exposure: 0 log10 CFU/mL
E. coli ATCC 25922 [19]; single agent at 1x its MIC
  growth- and kill rates k ('+' = growth, unmarked = kill rate): 0.86 h⁻¹
  Viable counts at 8 h of exposure: 0 log10 CFU/mL
E. coli ATCC 25922 [19]; single agent at 2x its MIC
  growth- and kill rates k ('+' = growth, unmarked = kill rate): 1.04 h⁻¹
  Viable counts at 8 h of exposure: 0 log10 CFU/mL
E. coli NRZ-00401; single agent at 1x its MIC
  growth- and kill rates k ('+' = growth, unmarked = kill rate): 2.46 h⁻¹
  Viable counts at 8 h of exposure: 0 log10 CFU/mL
E. coli NRZ-00401; single agent at 2x its MIC
  growth- and kill rates k ('+' = growth, unmarked = kill rate): 2.53 h⁻¹
  Viable counts at 8 h of exposure: 0 log10 CFU/mL
[20]
  MIC (agent alone): 1 µg/mL
[20]; listed as col
  MIC (agent alone): 0.5 to 1 µg/mL
E. coli ATCC 25922 [7]
  MIC (agent alone): 1 to 2 µg/mL
E. cloacae ATCC 13047 [8]; checkerboard
  MIC (agent alone): 256 µg/mL
[21]
  type of activity in time-kill: bactericidal
[22]
  MIC (agent alone): 0.5 to 2 µg/mL
[23]
  MIC (agent alone): 0.5 to 1 µg/mL
[24]
  MIC (agent alone): 2 µg/mL
